Results as given in patent US20250281457A1, “TREATMENT OR PREVENTION OF DENGUE VIRAL INFECTION” (Janssen Pharmaceuticals, Inc., priority 2022, published 2025).
Read-outs that look alike come from different tables or passages of the source.

Assay: Effect of food on plasma pharmacokinetics after single oral dose of SF2a/b (Example 2)
Format: in vivo, human
Details: both sexes, human, plasma, oral, 800 mg; for Tmax: read-out: tmax, Median
Description: The effect of food on the pharmacokinetics (PK) of Compound (a) was assessed in healthy participants after a single oral dose of SF2a/b, described in Example 1, administered at different dose levels in a randomized single dose, 2-period crossover study. The effect of food on the PK of Compound (a) was determined at 3 different dose levels (50 mg, 200 mg, and 800 mg) for a standardized breakfast; at one dose level (800 mg) for a high-fat, high-calorie breakfast; at two dose levels (200 mg and 800 mg) for a low-fat, low-calorie breakfast, as well as for a low-fat, high-calorie breakfast. 124 healthy adult participants (male and female, 18 to 55 years of age) were enrolled in this study. The volunteers were divided in six panels, which were organized as follows: • Panel […]: • Treatment D: A single 800-mg dose (4×200-mg tablets) of Compound (a) SF2b in fasted conditions. • Treatment E: A single 800-mg dose (4×200-mg tablets) of Compound (a) SF2b in fed conditions (standardized breakfast). • Treatments D and E (treatment sequence group 1 [n=8]: DE; treatment sequence group 2 [n=8]: ED). Panel 4, n=14: • Treatment F: A single 200-mg dose (1×200-mg tablet) of Compound (a) SF2b in fasted conditions. • Treatment G: A single 200-mg dose (1×200-mg tablet) of Compound (a) SF2b, in fed conditions (standardized breakfast). • Treatments F and G (treatment sequence group 1 [n=7]: FG; treatment sequence group 2 [n=7]: GF). Panel […]: • Treatment H: A single 50-mg dose (1×50-mg tablet) of Compound (a) SF2a in fasted conditions. • Treatment I: A single 50-mg dose (1×50-mg tablet) of Compound (a) SF2a in fed conditions (standardized breakfast). • Treatments H and I (treatment sequence group 1 [n=7]: HI; treatment sequence group 2 [n=7]: IH). Panel 6 (n=16): • Treatment J: single 800-mg dose (4×200-mg tablets) of Compound (a) administered as SF2b in fasted conditions. • Treatment K: single 800-mg dose (4×200-mg tablets) of Compound (a) administered as SF2b in fed conditions (high-fat, high-calorie breakfast). • Treatments J and K (treatment sequence group 1 [n=8]: JK; treatment sequence group 2 [n=8]: KJ). Panel 7 (n=32): • Treatment L: single 800-mg dose (4×200-mg tablets) of Compound (a) administered as SF2b in fed conditions (low-fat, low-calorie breakfast). • Treatment M: single 800-mg dose (4×200-mg tablets) of Compound (a) administered as SF2b in fed conditions (low-fat, high-calorie breakfast). • Treatment L (n=16) or Treatment M (n=16). Panel 8 (n=32): • Treatment N: single 200-mg dose (1×200-mg tablet) of Compound (a) administered as SF2b in fed conditions (low-fat, low-calorie breakfast). • Treatment O: single 200-mg dose (1×200-mg tablet) of Compound (a) administered as SF2b in fed conditions (low-fat, high-calorie breakfast). • Treatment N (n=16) or Treatment O (n=16). Tablets were administered orally, together with approximately 240 mL of non-carbonated water, in fasted or fed conditions. […] On day 1 of all treatments in each panel, the participants had fasted overnight for at least 10 hours before study drug intake. Intake of water was not allowed from 2 hours before and until 2 hours after study drug intake, except for the water used for study drug intake and breakfast. In case of intake in fed conditions, study drug was administered within 10 minutes after completing a standardized breakfast (Treatments E, G, and I), or a high-fat, high-calorie breakfast (Treatment K), a low-fat, low-calorie breakfast (Treatments L and N), or a low-fat, high-calorie breakfast (Treatments M and O). For treatments E, G, and I a standardized breakfast was served, consisting of (or its equivalent) 4 slices of bread, 2 slices of ham or cheese, butter, jelly, and 1 or 2 cups (up to 355 mL) of decaffeinated coffee or tea with milk and/or sugar, if desired (containing approximately: fat: 21 g, carbohydrates: 67 g, proteins: 19 g; total calories: 533 kcal). For treatment K in a high-fat, high-calorie breakfast was served. […]

COc1cc(NC(C(=O)c2c[nH]c3ccc(OC(F)(F)F)cc23)c2ccc(Cl)cc2OC)cc(S(C)(=O)=O)c1 (stereo not drawn) [Compound (a)]
Cmax (800 mg SF2b, fed, high-fat, high-calorie breakfast, read-out: Cmax, Geometric LS Means Treatment K): 4050 ng/mL
AUC(0-t) (800 mg SF2b, fed, low-fat, high-calorie breakfast, read-out: AUClast, Geometric LS Means Treatment M): 227 µg·h/mL
AUC(0-inf) (800 mg SF2b, fed, low-fat, high-calorie breakfast, read-out: AUC∞, Geometric LS Means Treatment M): 237 µg·h/mL
Cmax (800 mg SF2b, fed, low-fat, high-calorie breakfast, read-out: Cmax, Geometric LS Means Treatment M): 2060 ng/mL
AUC(0-t) (800 mg SF2b, fed, low-fat, low-calorie breakfast, read-out: AUClast, Geometric LS Means Treatment L): 210 µg·h/mL
AUC(0-inf) (800 mg SF2b, fed, low-fat, low-calorie breakfast, read-out: AUC∞, Geometric LS Means Treatment L): 221 µg·h/mL
Cmax (800 mg SF2b, fed, low-fat, low-calorie breakfast, read-out: Cmax, Geometric LS Means Treatment L): 2060 ng/mL
AUC(0-t) (800 mg SF2b, fed, standardized breakfast (Tables 5F, 5H), read-out: AUClast, Geometric LS Means Treatment E): 347 µg·h/mL
AUC(0-inf) (800 mg SF2b, fed, standardized breakfast (Tables 5F, 5H), read-out: AUC∞, Geometric LS Means Treatment E): 341 µg·h/mL
Cmax (800 mg SF2b, fed, standardized breakfast (Tables 5F, 5H), read-out: Cmax, Geometric LS Means Treatment E): 3400 ng/mL
AUC(0-t) (800 mg SF2b, standardized breakfast, linear mixed effects model (Table 5A), read-out: AUClast, Geometric Mean Treatment E): 337 µg·h/mL
AUC(0-inf) (800 mg SF2b, standardized breakfast, linear mixed effects model (Table 5A), read-out: AUC∞, Geometric Mean Treatment E): 352 µg·h/mL
Cmax (800 mg SF2b, standardized breakfast, linear mixed effects model (Table 5A), read-out: Cmax, Geometric Mean Treatment E): 3380 ng/mL
AUC(0-t) (Treatment D: single 800 mg (SF2b), fasted, read-out: AUClast, Geo. Mean): 133 µg·h/mL
AUC(0-t) (Treatment D: single 800 mg (SF2b), fasted, read-out: AUClast, Mean): 149 µg·h/mL
AUC(0-t) (Treatment D: single 800 mg (SF2b), fasted, read-out: AUClast, Median): 138 µg·h/mL
AUC(0-inf) (Treatment D: single 800 mg (SF2b), fasted, read-out: AUC∞, Geo. Mean): 142 µg·h/mL
AUC(0-inf) (Treatment D: single 800 mg (SF2b), fasted, read-out: AUC∞, Mean): 160 µg·h/mL
AUC(0-inf) (Treatment D: single 800 mg (SF2b), fasted, read-out: AUC∞, Median): 144 µg·h/mL
Cmax (Treatment D: single 800 mg (SF2b), fasted, read-out: Cmax, Geo. Mean): 1150 ng/mL
Cmax (Treatment D: single 800 mg (SF2b), fasted, read-out: Cmax, Mean): 1300 ng/mL
Cmax (Treatment D: single 800 mg (SF2b), fasted, read-out: Cmax, Median): 1450 ng/mL
half-life (Treatment D: single 800 mg (SF2b), fasted, read-out: t1/2, term, Geo. Mean (converted)): 180 h
half-life (Treatment D: single 800 mg (SF2b), fasted, read-out: t1/2, term, Mean (converted)): 194 h
half-life (Treatment D: single 800 mg (SF2b), fasted, read-out: t1/2, term, Median (converted)): 179 h
Tmax (Treatment D: single 800 mg (SF2b), fasted): 8 h
AUC(0-t) (Treatment E: single 800 mg (SF2b), fed, standardized breakfast, read-out: AUClast, Geo. Mean): 340 µg·h/mL
AUC(0-t) (Treatment E: single 800 mg (SF2b), fed, standardized breakfast, read-out: AUClast, Mean): 357 µg·h/mL
AUC(0-t) (Treatment E: single 800 mg (SF2b), fed, standardized breakfast, read-out: AUClast, Median): 337 µg·h/mL
AUC(0-inf) (Treatment E: single 800 mg (SF2b), fed, standardized breakfast, read-out: AUC∞, Geo. Mean): 337 µg·h/mL
AUC(0-inf) (Treatment E: single 800 mg (SF2b), fed, standardized breakfast, read-out: AUC∞, Mean): 348 µg·h/mL
AUC(0-inf) (Treatment E: single 800 mg (SF2b), fed, standardized breakfast, read-out: AUC∞, Median): 345 µg·h/mL
Cmax (Treatment E: single 800 mg (SF2b), fed, standardized breakfast, read-out: Cmax, Geo. Mean): 3400 ng/mL
Cmax (Treatment E: single 800 mg (SF2b), fed, standardized breakfast, read-out: Cmax, Mean): 3500 ng/mL
Cmax (Treatment E: single 800 mg (SF2b), fed, standardized breakfast, read-out: Cmax, Median): 3510 ng/mL
half-life (Treatment E: single 800 mg (SF2b), fed, standardized breakfast, read-out: t1/2, term, Geo. Mean (converted)): 166 h
half-life (Treatment E: single 800 mg (SF2b), fed, standardized breakfast, read-out: t1/2, term, Mean (converted)): 176 h
half-life (Treatment E: single 800 mg (SF2b), fed, standardized breakfast, read-out: t1/2, term, Median (converted)): 150 h
Tmax (Treatment E: single 800 mg (SF2b), fed, standardized breakfast): 6 h
